Test results: PubChem BioAssay (NCI)
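Assay format: 96-well plates, 48-hour exposure. At the GI50, growth is halved. TGI denotes the concentration required for complete inhibition of growth.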

Columns and labels:
Experiment in all cases: inhibition of tumour cell growth, NCI panel, 48 h
786-0 renal = test system: 786-0 renal
A498 renal = test system: A498 renal
A549 NSCLC = test system: A549 NSCLC
CAKI-1 renal = test system: CAKI-1 renal
CCRF-CEM leukemia = test system: CCRF-CEM leukemia
COLO 205 colon = test system: COLO 205 colon
DU-145 prostate = test system: DU-145 prostate
HL-60(TB) leukemia = test system: HL-60(TB) leukemia
HOP-62 NSCLC = test system: HOP-62 NSCLC
HOP-92 NSCLC = test system: HOP-92 NSCLC
HS 578T breast = test system: HS 578T breast
IGROV1 ovarian = test system: IGROV1 ovarian
K-562 leukemia = test system: K-562 leukemia
MALME-3M melanoma = test system: MALME-3M melanoma
MCF7 breast = test system: MCF7 breast
MDA-MB-231 breast = test system: MDA-MB-231 breast
MOLT-4 leukemia = test system: MOLT-4 leukemia
NCI-H226 lung = test system: NCI-H226 lung
NCI-H23 lung = test system: NCI-H23 lung
NCI-H460 lung = test system: NCI-H460 lung
NCI/ADR-RES ovarian = test system: NCI/ADR-RES ovarian
OVCAR-3 ovarian = test system: OVCAR-3 ovarian
OVCAR-4 ovarian = test system: OVCAR-4 ovarian
OVCAR-5 ovarian = test system: OVCAR-5 ovarian
OVCAR-8 ovarian = test system: OVCAR-8 ovarian
PC-3 prostate = test system: PC-3 prostate
RXF 393 renal = test system: RXF 393 renal
SF-268 CNS = test system: SF-268 CNS
SF-295 CNS = test system: SF-295 CNS
SK-MEL-2 melanoma = test system: SK-MEL-2 melanoma
SK-OV-3 ovarian = test system: SK-OV-3 ovarian
SN12C renal = test system: SN12C renal
SNB-75 CNS = test system: SNB-75 CNS
SW-620 colon = test system: SW-620 colon
TK-10 renal = test system: TK-10 renal
UACC-257 melanoma = test system: UACC-257 melanoma
ACHN renal = test system: ACHN renal
EKVX NSCLC = test system: EKVX NSCLC
HCC-2998 colon = test system: HCC-2998 colon
HCT-15 colon = test system: HCT-15 colon
LOX IMVI melanoma = test system: LOX IMVI melanoma
MDA-MB-435 = test system: MDA-MB-435
SF-539 CNS = test system: SF-539 CNS
SK-MEL-28 melanoma = test system: SK-MEL-28 melanoma
SK-MEL-5 melanoma = test system: SK-MEL-5 melanoma
UO-31 renal = test system: UO-31 renal

## COc1ccc(C(=O)c2cc(OC)c(OC)c(OC)c2)cc1/C=C/C(=O)c1ccc2c(c1)OCO2
786-0 renal
  GI50: 2.28 µM
  TGI: 5.84 µM
A498 renal
  GI50: 2.43 µM
  TGI: 16.7 µM
A549 NSCLC
  GI50: 4.39 µM
  TGI: > 100 µM
CAKI-1 renal
  GI50: 2.56 µM
  TGI: > 100 µM
CCRF-CEM leukemia
  GI50: 0.583 µM
  TGI: > 100 µM
COLO 205 colon
  GI50: 3.51 µM
  TGI: > 100 µM
DU-145 prostate
  GI50: 4.25 µM
  TGI: > 100 µM
HL-60(TB) leukemia
  GI50: 2.16 µM
  TGI: > 100 µM
HOP-62 NSCLC
  GI50: 4.4 µM
  TGI: 19.5 µM
HOP-92 NSCLC
  GI50: 12 µM
  TGI: 35.4 µM
HS 578T breast
  GI50: 4.56 µM
  TGI: > 100 µM
IGROV1 ovarian
  GI50: 3.52 µM
  TGI: 14.1 µM
K-562 leukemia
  GI50: 0.377 µM
  TGI: > 100 µM
MALME-3M melanoma
  GI50: 2.38 µM
  TGI: 6.61 µM
MCF7 breast
  GI50: 0.381 µM
  TGI: > 100 µM
MDA-MB-231 breast
  GI50: 2.35 µM
  TGI: 54.3 µM
MOLT-4 leukemia
  GI50: 1.61 µM
  TGI: > 100 µM
NCI-H226 lung
  GI50: 2.23 µM
  TGI: 6.32 µM
NCI-H23 lung
  GI50: 2.67 µM
  TGI: 8.22 µM
NCI-H460 lung
  GI50: 3.09 µM
  TGI: > 100 µM
NCI/ADR-RES ovarian
  GI50: 1.46 µM
  TGI: 15.2 µM
OVCAR-3 ovarian
  GI50: 1.96 µM
  TGI: 7.24 µM
OVCAR-4 ovarian
  GI50: 5.05 µM
  TGI: > 100 µM
OVCAR-5 ovarian
  GI50: 2.64 µM
  TGI: 8.19 µM
OVCAR-8 ovarian
  GI50: 2.32 µM
  TGI: 13.1 µM
PC-3 prostate
  GI50: 4.1 µM
  TGI: > 100 µM
RXF 393 renal
  GI50: 1.94 µM
  TGI: 4.21 µM
SF-268 CNS
  GI50: 2.95 µM
  TGI: > 100 µM
SF-295 CNS
  GI50: 3.43 µM
  TGI: 17.2 µM
SK-MEL-2 melanoma
  GI50: 2.81 µM
  TGI: 7.47 µM
SK-OV-3 ovarian
  GI50: 5.7 µM
  TGI: 41.1 µM
SN12C renal
  GI50: 3.07 µM
  TGI: > 100 µM
SNB-75 CNS
  GI50: 3.11 µM
  TGI: 15.6 µM
SW-620 colon
  GI50: 0.396 µM
  TGI: 3.77 µM
TK-10 renal
  GI50: 3.92 µM
  TGI: 14.7 µM
UACC-257 melanoma
  GI50: 3.55 µM
  TGI: > 100 µM

## OCCN1CCN(c2nc(Nc3ccc(-c4nc5ccccc5[nH]4)cc3)c3cn[nH]c3n2)CC1
A498 renal
  GI50: 1.92 µM
  TGI: 3.44 µM
ACHN renal
  GI50: 1.75 µM
  TGI: 3.16 µM
CAKI-1 renal
  GI50: 1.72 µM
  TGI: 3.13 µM
EKVX NSCLC
  GI50: 1.73 µM
  TGI: 3.26 µM
HCC-2998 colon
  GI50: 1.74 µM
  TGI: 3.33 µM
HCT-15 colon
  GI50: 1.15 µM
  TGI: 2.5 µM
HOP-92 NSCLC
  GI50: 1.41 µM
  TGI: 2.91 µM
HS 578T breast
  GI50: 2.15 µM
  TGI: 5.33 µM
LOX IMVI melanoma
  GI50: 1.63 µM
  TGI: 3.13 µM
MCF7 breast
  GI50: 1.59 µM
  TGI: 3.54 µM
MDA-MB-435
  GI50: 1.82 µM
  TGI: 3.29 µM
NCI-H23 lung
  GI50: 1.83 µM
  TGI: 3.54 µM
OVCAR-3 ovarian
  GI50: 1.69 µM
  TGI: 3.28 µM
OVCAR-5 ovarian
  GI50: 1.83 µM
  TGI: 3.26 µM
PC-3 prostate
  GI50: 1.64 µM
  TGI: 3.13 µM
RXF 393 renal
  GI50: 1.43 µM
  TGI: 2.85 µM
SF-295 CNS
  GI50: 1.88 µM
  TGI: 3.31 µM
SF-539 CNS
  GI50: 1.7 µM
  TGI: 3.08 µM
SK-MEL-28 melanoma
  GI50: 1.65 µM
  TGI: 3.05 µM
SK-MEL-5 melanoma
  GI50: 1.75 µM
  TGI: 3.15 µM
SW-620 colon
  GI50: 0.464 µM
  TGI: 1.87 µM
UO-31 renal
  GI50: 1.64 µM
  TGI: 3.14 µM
